In patent publication US6383521B1, “Wondonin A and process for preparing the same” (Korea Ocean Research and Development, priority 2000, dated 2002):

Experiments:
[1] = tested on: Human umbilical vascular endothelial cells (HUVEC); test: Invasion assay of HUVEC through Matrigel/Type IV collagen coated filter; format: cell-based; conditions: 10 μg/ml Wondonin A medium, bFGF, 18 hours
Description: Powdered medium 199 (M 199, Sigma Chemical Co., U.S.A.) and 2.2 g (per liter) of sodium bicarbonate was dissolved in double distilled water, pH of the medium was adjusted to 7.2 with HCl, and followed by sterile filtration on a […] Millipore filter. Then, a medium was finally prepared by supplementing, just before use, with 20% (w/v) FBS (fetal bovine serum ), 1% (w/v) Penicillin-Streptomycin (P-S), 3 ng/ml bFGF (basic fibroblast growth factor, a growth factor for angiogenesis) and 100 μg/ml heparin. Human umbilical vascular endothelial cells (“HUVEC”) purchased from ATCC (American Type Culture Collection) were seeded to 6 ml of the medium thus prepared in a T25 flask (25 cm^2) and grown to form a monolayer in an incubator at 37° C. under an environment of 5% (v/v) CO2 and saturated humidity, and then subcultured in a medium containing 0.05% (w/v) Trypsin-EDTA.
For invasion assay, lower surface of the polycarbonate filter (pore size: 8 μm) equipped in an insert chamber was coated with 5 μg of Type IV collagen and upper surface of the filter was coated with 25 μg of Matrigel (Collaborative Research, Inc., Waltham, Mass., U.S.A.). […] After staining of the fixed cells with haematoxillin and eosin, Matrigel was detached from the filter and HUVEC cells which have passed through the filter were counted. […]

[2] = tested on: vascular endothelial cells; test: Viability of vascular endothelial cells (Trypan Blue); format: cell-based, Human; conditions: 48 hour incubation, medium without FBS
Description: Vascular endothelial cells grown on Example 3 were placed onto a 24-well plate with 5×10^4 cells/well starting cell number in 1 ml (per well) of the same medium as in Example 3 except for containing 10% (v/v) FBS, and incubated at 37° C. under an environment of 5% (v/v) CO2 for 24 hours to the level of 80% cell confluency. Then, cells were rinsed with 1 ml of PBS and 1 ml of the same medium without FBS was added and then Wondonin A was added to reach the concentrations of […], respectively. After 48 hour incubation, medium was removed and cells were harvested by trypsinization. Cells were stained in a medium containing 0.4% (w/v) Trypan Blue at room temperature and then counted with haemacytometer. The cell viability was assessed based on total cell number and stained cell number (see: Table 1).

[3] = tested on: chick embryo chorioallantoic membrane; test: Chick embryo chorioallantoic membrane assay; format: in vivo; conditions: ratio of embryos with avascular zone to total embryos; cover slip on CAM, 2 days incubation
Description: On day 3.5, a part of egg shell was cracked gently, and on day 4.5, a cover slip containing Wondonin A (prepared by drying […] Wondonin A in methanol on a cover slip) or a control cover slip (prepared by drying 2 μl of methanol on a cover slip) was placed on the chorioallantoic membrane (CAM) through the crack and then the crack was sealed. After incubation for 2 days, 10% fat emulsion was injected to CAM, which was examined under a microscope. The embryos with a clear avascular zone (inhibition of angiogenesis) were counted and inhibitory effect of Wondonin A on angiogenesis was evaluated by calculating the ratio of the number of embryo with avascular zone to the total number of embryo tested (see: Table 2).

[4] = Physicochemical data of Wondonin A
Description: The spectrophotomeric data of Wondonin A are as follows: […]

solubility in polar organic solvents ([4]; methanol and dimethylsulfoxide): highly soluble
stability ([4]; pale-yellow semi-solid at room temperature): stable
SMILES: CN(C)CCc1cn(C(c2ccc(O)c(O)c2)C2Oc3ccc(/C=C/OS(=O)(=O)[O-])cc3O2)cn1.[Na+] (stereo not drawn) [Wondonin A]
reduction in a cell number passed through the filter compared to the control group [1]: 66%
Viability (%) ([2]; Wondonin A 1 μg/ml): 98%
Viability (%) ([2]; Wondonin A 10 μg/ml): 97%
Inhibition of angiogenesis (%) [3]: 89%
